The values that follow come from US10968264B2, “Cyclic peptide tyrosine tyrosine compounds as modulators of neuropeptide Y receptors” (priority 2016, dated 2021).

For the assay, the target named is T1, human NPY2R (Homo sapiens, UniProt P49146).
T1 construct: expressed in transfected cells; host or cells: HEK cells
In words: Human NPY2R cAMP in vitro potency assay (hY2 assay), inhibition of forskolin-induced cAMP, LANCE FRET. In kind it is cell-based. How it is done:
The method used to test the potency of PYY analogs in vitro was a cell based assay designed to measure inhibition of forskolin-induced cAMP produced by adenylate cyclase through modulation of the human NPY2R Gi-protein coupled receptor.
Cells were thawed from cryopreservation and added to 15 ml of cell media (DMEM/high glucose (Cellgro), 10% FBS (Hyclone), 1% Pen/Strep (Life Technologies), 1% L-Glutamine (Thermo Scientific), 1% Na Pyruvate (Thermo Scientific)). […] Supernatants in the assay plate were decanted. Dilutions of PYY analogs and controls were prepared in 1×HBSS (Cellgro), 5 mM HEPES (Cellgro), 0.1% BSA (PerkinElmer) and 0.5 mM 3-isobutyl-1-methylxanthine (Sigma), and 6 μL/well of each sample were added to designated wells. […] All samples were measured in triplicate. Data were analyzed using the Crucible in-house data analysis software, designed by Eudean Shaw. The unknown cAMP concentrations within each well were interpolated from the reference standards of known cAMP concentrations included within each plate.
(Time-resolved FRET reads energy transfer from a long-lived donor to a nearby acceptor.)

Where [1] appears, read: Y2R EC50 (nM) SEQ ID NO: 2-39, human NPY2R transfected HEK cells, NTSC-PYY compound.

Molecules are shown by their SMILES. Numbered stars: 1 amine (or outer) side, 2 acyl side, 3 side chain; on linkers, the order of the positions; unused ones are H or OH. Bridge positions count the residues as written; N and C are the ends. Side chains are listed from the residue outwards. Peptide text beside a SMILES is read from it. * marks the point of attachment. Argψ(CH2NH)TyrNH2 = N=C(N)NCCC[C@@H](CN[C@@H](Cc1ccc(O)cc1)C(N)=O)N*; C18 diacid = O=C(O)CCCCCCCCCCCCCCCCC(=O)*; γGlu = O=C(O)[C@H](CCC(=O)[*:2])N[*:1]; AEEA = NCCOCCOCC(=O)O

T1 sequence (P49146 whole entry): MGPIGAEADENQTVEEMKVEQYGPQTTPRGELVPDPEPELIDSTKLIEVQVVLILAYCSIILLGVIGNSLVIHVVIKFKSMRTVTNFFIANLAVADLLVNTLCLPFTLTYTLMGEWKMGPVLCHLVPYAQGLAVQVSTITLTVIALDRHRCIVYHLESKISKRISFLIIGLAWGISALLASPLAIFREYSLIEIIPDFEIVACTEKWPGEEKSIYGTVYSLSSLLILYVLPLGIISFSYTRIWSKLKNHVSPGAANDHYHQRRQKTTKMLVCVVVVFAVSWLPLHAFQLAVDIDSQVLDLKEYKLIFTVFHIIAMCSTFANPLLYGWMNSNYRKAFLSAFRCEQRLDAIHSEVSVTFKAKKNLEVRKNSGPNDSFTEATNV

Under setting [1], `CCCCCCCCCCCCCCCC(=O)N[C@@H](CCC(=O)NCCCC[C@@H]1NC(=O)[C@H](CC(N)=O)NC(=O)[C@H](CC(C)C)NC(=O)[C@H](Cc2ccc(O)cc2)NC(=O)[C@H](C)NC(=O)[C@H](CCCNC(=N)N)NC(=O)[C@H](CC(C)C)NC(=O)[C@H](CO)NC(=O)[C@H](C)NC(=O)[C@H](Cc2ccc(O)cc2)NC(=O)[C@H](Cc2ccc(O)cc2)NC(=O)[C@H](CCCNC(=N)N)NC(=O)[C@H](CC(N)=O)NC(=O)[C@H](CC(C)C)NC(=O)[C@H](CCC(=O)O)NC(=O)[C@H](CCC(=O)O)NC(=O)[C@@H]2CCCN2C(=O)[C@H](CO)NC(=O)[C@H](C)NC(=O)[C@H](CC(=O)O)NC(=O)[C@H](CCC(=O)O)NC(=O)CNC(=O)[C@@H]2CCCN2C(=O)[C@H](C)NC(=O)[C@H](CCC(=O)O)NC(=O)[C@@H]2CCCN2C(=O)[C@H](C)NC(=O)[C@H]([C@@H](C)CC)NC(=O)c2cccc(c2)CSCC[C@@H](C(=O)N[C@H](C(=O)N[C@@H](CCCNC(=N)N)C(=O)N[C@@H](CCC(N)=O)C(=O)N[C@@H](CCCNC(=N)N)C(=O)N[C@@H](Cc2ccc(O)cc2)C(N)=O)[C@@H](C)O)NC1=O)C(=O)O` [SEQ ID NO: 21] registered a half-maximal effective concentration (EC50) of 0.49 nM.
Take `CCCCCCCCCCCCCCCC(=O)N[C@@H](CCC(=O)NCCCC[C@@H]1NC(=O)[C@H](CC(N)=O)NC(=O)[C@H](CC(C)C)NC(=O)[C@H](Cc2ccc(O)cc2)NC(=O)[C@H](C)NC(=O)[C@H](CCCNC(=N)N)NC(=O)[C@H](CC(C)C)NC(=O)[C@H](CO)NC(=O)[C@H](C)NC(=O)[C@H](Cc2ccc(O)cc2)NC(=O)[C@H](Cc2ccc(O)cc2)NC(=O)[C@H](CCCNC(=N)N)NC(=O)[C@H](CC(N)=O)NC(=O)[C@H](CC(C)C)NC(=O)[C@H](CCC(=O)O)NC(=O)[C@H](CCC(=O)O)NC(=O)[C@@H]2CCCN2C(=O)[C@H](CO)NC(=O)[C@H](C)NC(=O)[C@H](CC(=O)O)NC(=O)[C@H](CCC(=O)O)NC(=O)CNC(=O)[C@@H]2CCCN2C(=O)[C@H](C)NC(=O)[C@H](CCC(=O)O)NC(=O)[C@@H]2CCCN2C(=O)[C@H](CCC(=O)O)NC(=O)[C@H]([C@@H](C)CC)NC(=O)c2cccc(c2)CSCC[C@@H](C(=O)N[C@H](C(=O)N[C@@H](CCCNC(=N)N)C(=O)N[C@@H](CCC(N)=O)C(=O)N[C@@H](CCCNC(=N)N)C(=O)N[C@@H](Cc2ccc(O)cc2)C(N)=O)[C@@H](C)O)NC1=O)C(=O)O` [SEQ ID NO: 22]: under “Y2R EC50 (nM) SEQ ID NO: 2-39”, a half-maximal effect (EC50) was put at 4.4 nM.
On the same count and under the same terms, for `CC[C@H](C)[C@@H]1NC(=O)CCNC(=O)CSC[C@@H](C(=O)N[C@H](C(=O)N[C@H](C(=O)N[C@@H](CCCNC(=N)N)C(=O)N[C@@H](CCC(N)=O)C(=O)N[C@@H](CCCNC(=N)N)CN[C@@H](Cc2ccc(O)cc2)C(N)=O)[C@@H](C)O)C(C)C)NC(=O)[C@H](CC(N)=O)NC(=O)[C@H](CC(C)C)NC(=O)[C@H](Cc2ccc(O)cc2)NC(=O)[C@H](Cc2c[nH]cn2)NC(=O)[C@H](CCCNC(=N)N)NC(=O)[C@H](CC(C)C)NC(=O)[C@H](CO)NC(=O)[C@H](C)NC(=O)[C@H](Cc2ccc(O)cc2)NC(=O)[C@H](Cc2ccc(O)cc2)NC(=O)[C@H](CCCNC(=N)N)NC(=O)[C@H](CC(N)=O)NC(=O)[C@H](CC(C)C)NC(=O)[C@H](CCC(=O)O)NC(=O)[C@H](CCC(=O)O)NC(=O)[C@@H]2CCCN2C(=O)[C@H](CO)NC(=O)[C@H](C)NC(=O)[C@H](CCCCNC(=O)COCCOCCNC(=O)COCCOCCNC(=O)CC[C@H](NC(=O)CCCCCCCCCCCCCCCCC(=O)O)C(=O)O)NC(=O)[C@H](CCC(=O)O)NC(=O)CNC(=O)[C@@H]2CCCN2C(=O)[C@H](C)NC(=O)[C@H](CCC(=O)O)NC(=O)[C@@H]2CCCN2C(=O)[C@H](CCCCN)NC1=O` [SEQ ID NO: 68] the value was 0.27 nM.
The compound `CC[C@H](C)[C@@H]1NC(=O)CNC(=O)CC[C@@H](C(=O)N[C@H](C(=O)N[C@H](C(=O)N[C@@H](CCCNC(=N)N)C(=O)N[C@@H](CCC(N)=O)C(=O)N[C@@H](CCCNC(=N)N)CN[C@@H](Cc2ccc(O)cc2)C(N)=O)[C@@H](C)O)C(C)C)NC(=O)[C@H](CC(N)=O)NC(=O)[C@H](CC(C)C)NC(=O)[C@H](Cc2ccc(O)cc2)NC(=O)[C@H](Cc2c[nH]cn2)NC(=O)[C@H](CCCNC(=N)N)NC(=O)[C@H](CC(C)C)NC(=O)[C@H](CO)NC(=O)[C@H](C)NC(=O)[C@H](Cc2ccc(O)cc2)NC(=O)[C@H](Cc2ccc(O)cc2)NC(=O)[C@H](CCCNC(=N)N)NC(=O)[C@H](CC(N)=O)NC(=O)[C@H](CC(C)C)NC(=O)[C@H](CCC(=O)O)NC(=O)[C@H](CCC(=O)O)NC(=O)[C@@H]2CCCN2C(=O)[C@H](CO)NC(=O)[C@H](C)NC(=O)[C@H](CCCCN)NC(=O)[C@H](CCC(=O)O)NC(=O)CNC(=O)[C@@H]2CCCN2C(=O)[C@H](C)NC(=O)[C@H](CCC(=O)O)NC(=O)[C@@H]2CCCN2C(=O)[C@H](CO)NC1=O` [SEQ ID NO: 70, [cyclo-(G2-E30), S4, K11, psi-(R35,Y36)]-PYY2-36] (HELM PEPTIDE1{G.I.S.P.E.A.P.G.E.K.A.S.P.E.E.L.N.R.Y.Y.A.S.L.R.H.Y.L.N.E.V.T.R.Q.[N=C(N)NCCC[C@@H](CN[C@@H](Cc1ccc(O)cc1)C(N)=O)N[*:1]]}$PEPTIDE1,PEPTIDE1,1:R1-29:R3$$$V2.0) registered a concentration giving a half-maximal response (EC50) (Y2R EC50 (nM) SEQ ID NO: 2-39) of 0.02 nM. Against the preceding compound, the EC50 is about 14-fold lower.
Under setting [1], `CC[C@H](C)[C@@H]1NC(=O)CNC(=O)CC[C@@H](C(=O)N[C@H](C(=O)N[C@H](C(=O)N[C@@H](CCCNC(=N)N)C(=O)N[C@@H](CCC(N)=O)C(=O)N[C@@H](CCCNC(=N)N)CN[C@@H](Cc2ccc(O)cc2)C(N)=O)[C@@H](C)O)C(C)C)NC(=O)[C@H](CC(N)=O)NC(=O)[C@H](CC(C)C)NC(=O)[C@H](Cc2ccc(O)cc2)NC(=O)[C@H](Cc2c[nH]cn2)NC(=O)[C@H](CCCNC(=N)N)NC(=O)[C@H](CC(C)C)NC(=O)[C@H](CO)NC(=O)[C@H](C)NC(=O)[C@H](Cc2ccc(O)cc2)NC(=O)[C@H](Cc2ccc(O)cc2)NC(=O)[C@H](CCCNC(=N)N)NC(=O)[C@H](CC(N)=O)NC(=O)[C@H](CC(C)C)NC(=O)[C@H](CCC(=O)O)NC(=O)[C@H](CCC(=O)O)NC(=O)[C@@H]2CCCN2C(=O)[C@H](CO)NC(=O)[C@H](C)NC(=O)[C@H](CCCCNC(=O)COCCOCCNC(=O)COCCOCCNC(=O)CC[C@H](NC(=O)CCCCCCCCCCCCCCCCC(=O)O)C(=O)O)NC(=O)[C@H](CCC(=O)O)NC(=O)CNC(=O)[C@@H]2CCCN2C(=O)[C@H](C)NC(=O)[C@H](CCC(=O)O)NC(=O)[C@@H]2CCCN2C(=O)[C@H](CO)NC1=O` [SEQ ID NO: 72] (GISPEAPGEK([AEEA-AEEA-γGlu-C18 diacid])ASPEELNRYYASLRHYLNEVTRQ-{Argψ(CH2NH)TyrNH2}; lactam N-29) registered an EC50 of 1.75 nM.

By EC50 is commonly meant the concentration that produces a half-maximal response. High values mean lower potency in that assay, low ones higher potency in that assay.
